# Experiments:
# [1] = test system: patients with negative symptoms of schizophrenia; test: Integrated analysis (pooled ITT): rate of relapse and time to relapse; format: in vivo, human
# Protocol: (§1) “Time to relapse” in the DB period is defined as the number of days from Day 1 to the date of early trial termination due to relapse. […] Treatment differences in time to relapse in the DB period were analyzed using a Cox-regression model with treatment group and Baseline PANSS total score as covariates. For the analysis of the OL period, this analysis was repeated to analyze treatment differences in time to relapse in the study. For the OL period analysis, patients who were not observed to relapse in the study were censored on the date on which they ended the study. Kaplan-Meier plots of time to relapse in the DB period, OL period, and in the study were generated.
# (§2) In some embodiments, for any of the methods disclosed herein, a relapse refers to a patient who is terminated early during treatment (or a study trial) due to worsening of psychosis or an adverse event or generalized symptom in Table 1.
# The Efficacy data from Study Nos. 1 and 2 were pooled. The majority of patients in the pooled ITT population completed the DB period (502 patients overall, 66.3%), with similar rates in each treatment group (placebo: 69.8%, 32 mg Roluperidone: 65.3%, and 64 mg Roluperidone: 63.8%) (Table 12). The majority (62.7%) of those who completed the DB period entered the OL period. The most common reason for discontinuation during the DB period among patients overall was withdrawal of consent (15.6%), followed by adverse events (7.3%) and lack of efficacy (5.4%) (Table 12). […] Approximately twice as many patients in the Roluperidone groups (32 mg: 8.5%; 64 mg: 9.1%) discontinued due to adverse events compared with patients in the placebo group (4.3%). More patients in the placebo group discontinued due to lack of efficacy (6.7%) than in the Roluperidone groups (32 mg: 4.4%; 64 mg: 5.1%). The low number of patients who discontinued due to lack of efficacy or withdrawal of consent probably reflects a low level of worsening of positive symptoms.
# sigma2 = sigma2 (Homo sapiens, UniProt Q5BJF2); conditions: background statement; cited from earlier work
# schizophrenia patient = test: Case report Patient X: Roluperidone monotherapy over 2+ years; format: in vivo, human; conditions: 64 mg/day monotherapy, two years
# Protocol: Patient X presented with flat effect and restricted emotional expression, poor motivation to do much more than watch television and occasionally participate in occupational therapy for a few hours a week. Patient could not fully concentrate enough to even read. During the course of monotherapy with Roluperidone (64 mg/day), patient saw gradual improvement in their negative and cognitive symptoms. This allowed the patient to find employment. Their affect is no longer restricted and they read full novels on a regular basis with no trouble concentrating, and enjoys and looks forward to all their various daily activities.
# [2] = test system: patients with negative symptoms of schizophrenia; test: Study #1 (MIN-101C03): rate of relapse; format: in vivo, human; conditions: for Rate of relapse (%) / Rate of relapse (number of patients): DB period, MIN-101C03
# Protocol: as §1, §2
# Phase 2b Study #1 (also referred to herein as “MIN-101C03”) was a Phase 2b, double-blind (“DB”), placebo-controlled, randomized, multicenter 12-week study to evaluate the efficacy, safety, and tolerability of Roluperidone in patients ≥18 years to ≤60 years with negative symptoms of schizophrenia, followed by a 24-week open-label (“OL”) extension. The primary objective of the study was to evaluate the efficacy of Roluperidone compared to placebo in improving the negative symptoms of schizophrenia as measured by the change from Baseline in the PANSS negative factor score of the PSM (“PANSS PSM”) over 12 weeks of treatment.
# The study consisted of a pretreatment screening period of up to 28 days (including washout), a 12-week, DB, placebo-controlled period, and a 24-week OL period. Eligible patients (who were symptomatically stable for at least 3 months and had scores of at least 20 on the PANSS negative subscale score) were randomized in a 1:1:1 ratio to receive oral Roluperidone (a modified-release, “MR”, formulation) 32 mg QD, Roluperidone 64 mg QD, or placebo for 12 weeks. […] During the 24-week, OL treatment extension period, patients who were initially randomized to Roluperidone 32 mg or 64 mg continued on the same dose, while patients who were initially randomized to placebo crossed over to Roluperidone 32 mg or 64 mg in a 1:1 ratio.
# [3] = Roluperidone Total (N = 502), DB period
# sigma2, sequence (Q5BJF2 whole entry): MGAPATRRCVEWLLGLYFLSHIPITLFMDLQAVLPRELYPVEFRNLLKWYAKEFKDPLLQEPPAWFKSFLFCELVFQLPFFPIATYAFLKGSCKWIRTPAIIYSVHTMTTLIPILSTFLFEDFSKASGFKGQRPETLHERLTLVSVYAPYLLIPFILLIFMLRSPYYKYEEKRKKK
substance,measurement,setting,value
"1H-Isoindol-1-one,2-[ [1-[2-(4-fluorophenyl)-2-oxoethyl]-4-piperidinyl]methyl]-2,3-dihydro-, hydrochloride, hydrate (1:1:2) [Roluperidone]",Patients who experienced relapse (%),"[1]; 32 mg (N = 248), DB period",8%
same,Patients who experienced relapse (number),"[1]; 32 mg (N = 248), DB period",19
same,Mean number of days to relapse,"[1]; 32 mg group, OL period",234.8 days
same,Patients who experienced relapse (%),"[1]; 32 mg throughout, OL period",7%
same,Patients who experienced relapse (number),"[1]; 32 mg throughout, OL period",10
same,"Days to relapse (Kaplan-Meier estimates), Mean","[1]; 32 mg, DB period",128.3 days
same,"Days to relapse (Kaplan-Meier estimates), Median","[1]; 32 mg, DB period",137.0 days
same,Patients who experienced relapse (%),"[1]; 64 mg (N = 254), DB period",6%
same,Patients who experienced relapse (number),"[1]; 64 mg (N = 254), DB period",16
same,Mean number of days to relapse,"[1]; 64 mg group, OL period",188.1 days
same,Patients who experienced relapse (%),"[1]; 64 mg throughout, OL period",8%
same,Patients who experienced relapse (number),"[1]; 64 mg throughout, OL period",12
same,"Days to relapse (Kaplan-Meier estimates), Mean","[1]; 64 mg, DB period",81.4 days
same,Patients who experienced relapse (%),[1]; [3],7%
same,Patients who experienced relapse (number),[1]; [3],35
same,"Days to relapse (Kaplan-Meier estimates), Mean","[1]; Roluperidone Total, DB period",128.9 days
same,"Days to relapse (Kaplan-Meier estimates), Median","[1]; Roluperidone Total, DB period",137.0 days
same,Patients who experienced relapse (%),"[1]; placebo to 32 mg, OL period",11%
same,Patients who experienced relapse (number),"[1]; placebo to 32 mg, OL period",9
same,Patients who experienced relapse (%),"[1]; placebo to 64 mg, OL period",1%
same,Patients who experienced relapse (number),"[1]; placebo to 64 mg, OL period",1
same,Mean number of days to relapse,"[1]; total placebo to Roluperidone group, OL period",256.3 days
same,Antagonistic activity,sigma2,antagonistic activities
same,Relapse under monotherapy,schizophrenia patient,has not had a relapse
same,Rate of relapse (%),[2]; 32 mg,7%
same,Rate of relapse (number of patients),[2]; 32 mg,5
same,Rate of relapse (%),[2]; 64 mg,9%
same,Rate of relapse (number of patients),[2]; 64 mg,7
same,Relapse by study phase,"[2]; Study #1 (n = 244), all subjects, Double-blind (12-weeks)",11.5%
same,Relapse overall (discontinued because of positive symptoms worsening),"[2]; Study #1 (n = 244), Overall (over 36 weeks)",15.2%
same,Relapse by study phase,"[2]; Study #1, Open-label (over 24 weeks)",6%

# Reference: US20230255953A1, “USE OF ROLUPERIDONE IN PREVENTING RELAPSE IN SCHIZOPHRENIA PATIENTS” (Minerva Neurosciences, Inc., priority 2022, published 2023)
